Counter-ions that a name gives are not always drawn. Like-named read-outs stand apart in the source and are kept apart here.
Experiments:
[1] = test system: Trypanosoma brucei rhodesiense (T.b.r.); assay: In vitro activity vs. T. b. rhodesiense; format: cell-based
[2] = test system: Plasmodium falciparum (P.f.); assay: In vitro activity vs. P. falciparum; format: cell-based
[3] = test system: virulent STIP900 strain of T.b.r.; assay: Mouse model of T.b.r. infection; format: in vivo
[4] = read-out: IC-50 values versus Trypanosoma brucei rhodesiense (T.b.r.)
[5] = read-out: IC-50 values versus Plasmodium falciparum (p.f.)

SMILES	melting point	IC50 ([1]; Table 1, read-out: T.b.r. IC50)	IC50 ([2]; Table 1, read-out: P.f. IC50)	other results
CC(=O)O.N=C(N)c1ccc(-c2cccc(-c3nc4cc(C(=N)N)ccc4[nH]3)c2)nc1 [Compound 40, 2-[3-(5-Carbamimidoyl-pyridin-2-yl)-phenyl]-1H-benzimidazole-5-carboxamidine acetate salt]	198 to 200 °C (dec.)	15 nM	96 nM	IC50 [1, 4]: < 20 nM; cure of the virulent STIP900 strain of T.b.r. in a mouse model [3]: cure
CC(=O)O.Cc1cc(C(=N)N)ccc1-c1ccc(-c2nc3cc(C(=N)N)ccc3[nH]2)cc1 [Compound 52, 2-(4′-carbamimidoyl-2′-methylbiphenyl-4-yl)-1H-benzimidazole-5-carboxamidine acetate salt]	193 to 195 °C	–	–	IC50 ([1]; Table 2, read-out: T.b.r. IC50): 6 nM; IC50 [1, 4]: < 20 nM
N=C(NO)c1ccc(-c2ccc(-c3nc4cc(C(=N)NO)ccc4[nH]3)cc2)c(OCc2ccccc2)c1 [Compound 47, 2-[2′-benzyloxy-4′-(N-hydroxycarbamimidoyl)-biphenyl-4-yl]-N-hydroxy-1H-benzimidazole-5-carboxamidine]	250 to 253 °C (dec.)	–	–	–
N=C(NO)c1ccc(-c2ccc(-c3nc4cc(C(=N)NO)ccc4[nH]3)cc2)nc1 [Compound 43, N-hydroxy-2-{4-[5-(N-hydroxycarbamimidoyl)-pyridin-2-yl]-phenyl}-1H-benzimidazole-5-carboxamidine]	305 to 308 °C (dec.)	–	–	–
N=C(NO)c1ccc(-c2cccc(-c3nc4cc(C(=N)NO)ccc4[nH]3)c2)nc1 [Compound 39, N-hydroxy-2-{3-[5-(N-hydroxycarbamimidoyl)-pyridin-2-yl]-phenyl}-1H-benzimidazole-5-carboxamidine]	295 to 297 °C (dec.)	–	–	–
COc1ccc(-c2ccc(C(=N)NO)cc2)cc1-c1nc2cc(C(=N)NO)ccc2[nH]1 [Compound 19, N-hydroxy-2-[4′-(N-hydroxycarbamimidoyl)-4-methoxy-biphenyl-3-yl]-1H-benzimidazole-5-carboxamidine]	> 340 °C	–	–	–
CC(=O)O.N=C(N)c1ccc(-c2ccc(-c3nc4cc(C(=N)N)ccc4[nH]3)cc2)c(O)c1 [Compound 48, 2-(4′-carbamimidoyl-2′-hydroxy-biphenyl-4-yl)-1H-benzimidazole-5-carboxamidine acetate salt]	220 to 222 °C	–	–	IC50 ([1]; Table 2, read-out: T.b.r. IC50): 27 nM; IC50 ([2]; Table 2, read-out: P.f. IC50): 19.1 nM
CC(=O)O.Cc1cc(C(=N)N)ccc1-c1cccc(-c2nc3cc(C(=N)N)ccc3[nH]2)c1 [Compound 28, 2-(4′-carbamimidoyl-2′-methyl-biphenyl-3-yl)-1H-benzimidazole-5-carboxamidine acetate salt]	201 to 203 °C	23 nM	55 nM	–
CC(=O)O.COc1ccc(-c2ccc(C(=N)N)cn2)cc1-c1nc2cc(C(=N)N)ccc2[nH]1 [Compound 36, 2-[5-(5-carbamimidoyl-pyridin-2-yl)-2-methoxyphenyl]-1H-benzimidazole-5-carboxamidine acetate salt]	231 to 232 °C (dec.)	14 nM	364 nM	IC50 [1, 4]: < 20 nM
N=C(NO)c1ccc(-c2cccc(-c3nc4cc(C(=N)NO)ccc4[nH]3)c2O)cc1 [Compound 15, N-hydroxy-2-[2-hydroxy-4′-(N-hydroxycarbamimidoyl)-biphenyl-3-yl]-1H-benzimidazole-5-carboxamidine]	322 to 325 °C (dec.)	–	–	–
CC(=O)O.N=C(N)c1ccc2[nH]c(-c3ccc(-c4ccc(C(=N)N)c(F)c4)cc3)nc2c1 [Compound 32, 2-(4′-carbamimidoyl-3′-fluoro-biphenyl-4-yl)-1H-benzimidazole-5-carboxamidine acetate salt]	210 to 212 °C (dec.)	–	–	IC50 ([1]; Table 2, read-out: T.b.r. IC50): 35 nM; IC50 ([2]; Table 2, read-out: P.f. IC50): 1.3 nM; IC50 [2, 5]: < 3 nM
N=C(N)c1ccc(-c2cccc(-c3nc4cc(C(=N)N)ccc4[nH]3)c2)cc1 [Compound 24, 2-(4′-carbamimidoyl-biphenyl-3-yl)-1H-benzimidazole-5-carboxamidine acetate salt]	–	4.4 nM	27.5 nM	IC50 [1, 4]: < 20 nM
CC(=O)O.N=C(N)c1ccc(-c2ccc(-c3nc4cc(C(=N)N)ccc4[nH]3)cc2)nc1 [Compound 44, 2-[4-(5-carbamimidoyl-pyridin-2-yl)-phenyl]-1H-benzimidazole-5-carboxamidine acetate salt]	240 to 241 °C	–	–	IC50 ([1]; Table 2, read-out: T.b.r. IC50): 41 nM; IC50 ([2]; Table 2, read-out: P.f. IC50): 7 nM
COc1cc(-c2ccc(C(=N)NO)cc2)cc(-c2nc3cc(C(=N)NO)ccc3[nH]2)c1O [Compound 11, N-hydroxy-2-[4-hydroxy-4′-(N-hydroxycarbamimidoyl)-5-methoxy-biphenyl-3-yl]-1H-benzimidazole-5-carboxamidine]	319 to 321 °C	–	–	–
CC(=O)O.N=C(N)c1ccc(-c2cccc(-c3nc4cc(C(=N)N)ccc4[nH]3)c2O)cc1 [Compound 16, 2-(4′-carbamimidoyl-2-hydroxy-biphenyl-3-yl)-1H-benzimidazole-5-carboxamidine acetate salt]	228 to 229.5 °C (dec.)	17 nM	131 nM	IC50 [1, 4]: < 20 nM; cure of the virulent STIP900 strain of T.b.r. in a mouse model [3]: cure
N=C(N)c1ccc(-c2ccc(O)c(-c3nc4cc(C(=N)N)ccc4[nH]3)c2)cc1 [Compound 4, 2-(4′-carbamimidoyl-4-hydroxy-biphenyl-3-yl)-1H-benzimidazole-5-carboxamidine acetate salt]	–	27 nM	2.1 nM	IC50 [2, 5]: < 3 nM
N=C(NO)c1cccc(-c2ccc(O)c(-c3nc4cc(C(=N)NO)ccc4[nH]3)c2)c1 [Compound 7, N-hydroxy-2-[4-hydroxy-3′-(N-hydroxycarbamimidoyl)-biphenyl-3-yl]-1H-benzimidazole-5-carboxamidine]	352 to 355 °C	–	–	–
N=C(NO)c1ccc(-c2ccc(-c3nc4cc(C(=N)NO)ccc4[nH]3)c(F)c2)cc1 [Compound 31, 2-[3-fluoro-4′-(N-hydroxycarbamimidoyl)-biphenyl-4-yl]-N-hydroxy-1H-benzimidazole-5-carboxamidine]	281 to 283 °C (dec.)	–	–	–
Cc1cc(C(=N)NO)ccc1-c1ccc(-c2nc3cc(C(=N)NO)ccc3[nH]2)cc1 [Compound 51, N-hydroxy-2-[4′-(N-hydroxycarbamimidoyl)-2′-methyl-biphenyl-4-yl]-1H-benzimidazole-5-carboxamidine]	300 to 302 °C	–	–	–
N=C(N)c1ccc(-c2ccc(-c3nc4ccc(C(=N)N)cc4[nH]3)cc2)cc1 [Compound 56]	–	–	–	IC50 ([1]; Table 2, read-out: T.b.r. IC50): 7.7 nM; IC50 [1, 4]: < 20 nM; IC50 ([2]; Table 2, read-out: P.f. IC50): 0.5 nM; IC50 [2, 5]: < 3 nM
N=C(NO)c1ccc(-c2cccc(-c3nc4cc(C(=N)NO)ccc4[nH]3)c2)cc1 [Compound 23, N-hydroxy-2-[4′-(N-hydroxycarbamimidoyl)-biphenyl-3-yl]-1H-benzimidazole-5-carboxamidine]	317 to 319 °C	–	–	–
CC(=O)O.COc1cc(-c2ccc(C(=N)N)cc2)cc(-c2nc3cc(C(=N)N)ccc3[nH]2)c1O [Compound 12, 2-(4′-carbamimidoyl-4-hydroxy-5-methoxy-biphenyl-3-yl)-1H-benzimidazole-5-carboxamidine acetate salt]	230 to 231 °C (dec.)	31 nM	131 nM	–
Cc1cc(C(=N)NO)ccc1-c1cccc(-c2nc3cc(C(=N)NO)ccc3[nH]2)c1 [Compound 27, N-hydroxy-2-[4′-(N-hydroxycarbamimidoyl)-2′-methyl-biphenyl-3-yl]-1H-benzimidazole-5-carboxamidine]	295 to 297 °C (dec.)	–	–	–
CC(=O)O.COc1ccc(-c2ccc(C(=N)N)cc2)cc1-c1nc2cc(C(=N)N)ccc2[nH]1 [Compound 20, 2-(4′-carbamimidoyl-4-methoxy-biphenyl-3-yl)-1H-benzimidazole-5-carboxamidine acetate salt]	220 to 221 °C	53 nM	40 nM	–
CC(=O)O.N=C(N)c1cccc(-c2ccc(O)c(-c3nc4cc(C(=N)N)ccc4[nH]3)c2)c1 [Compound 8, 2-(3′-carbamimidoyl-4-hydroxy-biphenyl-3-yl)-1H-benzimidazole-5-carboxamidine acetate salt]	208 to 209 °C (dec.)	213 nM	34 nM	–
